“And” between values parts separate entries of the source, which are not always exact repeats. Equal values may be shown once. Where a name gives a salt, the structure may show the parent alone.
What was measured:
Design in all cases: species or system human
[1] = Synthetic axilla malodor on cotton pads, 10-member panel rating of malodor strength; conditions: for Class A + Malodor (strength of the axilla malodor, panel score): 0.4 g ethanolic solution with 10% (wt) test compound on malodor pad, 10-member panel after 3 hours; for Class A + Malodor (strength of the axilla malodor, panel score) / 50% DHF/50% Class A (strength of the axilla malodor, panel score): scale 5 overpowering to 1 not detectable; for 50% DHF/50% Class A (strength of the axilla malodor, panel score): test solution 5% (wt) DHF and 5% (wt) Class A compound, after 3 hours
Experimental: 100 μl of synthetic axilla malodor was placed onto cotton pads. 0.4 g of an ethanolic solution containing 10% (wt) of a test compound identified in Table 1 was placed on each axilla malodor treated cotton pad. Each pad was allowed to dry 15 for minutes, and then evaluated using a 10-member panel after 3 hours. The test cotton pads were randomized, and each panelist was asked to check a box that represented the strength of the axilla malodor using the following scale:
In this example, the MO effect of various mixtures of a Class A MOC compound and a Class B MOC compound (i.e., dihexyl fumarate (“DHF”) as disclosed in Kulka, U.S. Pat. No. 3,074,892) were evaluated using the same test and malodor evaluation procedures as set forth in Example 1. Each test sol ion contained 5% (wt) DHF and 5% (wt) of the Class A compound identified in Table 3. The MOC effect was evaluated as in Example 1.
Various mixtures of OMC (a Class A Compound) and a Class B compound (i.e., various cyclohexyl esters as disclosed in Schleppnik '221) as identified in Table 4 below were made according to the procedure set forth in Example 1. The MOC of each mixture was evaluated using the procedure set forth in Example 1.

[2] = MOC of sweat malodor on fabric swatches; conditions: Table 6
Experimental: The following fabric treatment solutions were prepared:
1. A solution of ethanol and Cremophor (a hydrogenated ethoxylated castor oil marketed by BASF Corp., Mount Olive, N.J.) containing 10% (wt) of dihexyl fumarate (DHF).
2. A solution of ethanol and Cremophor containing 10% (wt) of OMC.
3. A solution of ethanol and Cremophor containing 5% (wt) of DHF+5% (wt) OMC.
Five (5) fabric swatches were prepared, and labeled A-E. Swatch A was designated as the control swatch with no malodor. 100 μl of sweat malodor was placed in the middle of swatches B-E. Swatch B was designated as the control swatch for the malodor. The swatches were allowed to equilibrate with the malodor for 20 minutes. Onto swatches C-E, the following solutions were sprayed:
The malodor intensity on the cotton swatches was evaluated as follows:
The malodor intensity on swatch B (Malodor Control) was identified as a 5 (overpoweringly strong) on the scale of 1-5 set forth below at every time point, and the rest of swatches were evaluated based on that standard.

[3] = Tobacco smoke malodor on cotton fabric, 20-member panel; conditions: 0.4 gram of 5% (wt) OMC in ethanol on smoke-treated cotton fabric; average of 20 panelists; three hours; scale 1-5
Experimental: (§1) The ability of OMC to reduce the malodor intensity of tobacco smoke, onion, and garlic solutions on cotton fabric was determined.
(§2) Cotton cloth pads were evaluated by 20 panelists to determine how well OMC reduced the perceived odor of tobacco smoke, onion, and garlic solutions on cotton fabric.
(§3) The effect of the test solutions on the garlic or onion odors were evaluated by asking a 20-member panel to rate the intensity of the malodor present on the controls and on the treated fabrics using a scale of 1-5 as shown below three hours after the preparation of each sample. The data are average values from the scores by each of the 20 panelists.
Samples were prepared fresh before each evaluation. Clean pieces of fabric were treated with smoke by placing each fabric piece in a smoked filled environment for 10 minutes. Each piece of fabric was sprayed with 0.4 gram of the 5% (wt) OMC in ethanol test solution set forth above in the garlic and onion example. The treated fabric pieces were left to dry for 15 minutes, and then wrapped in foil.
Controls were prepared from a smoke-treated piece of cloth that was not sprayed with a test solution.
The fabric pieces were evaluated in the same way as described above in the onion and garlic example.

[4] = Onion malodor on cotton fabric, 20-member panel; conditions: 0.4 g of 5% OMC in ethanol on cotton pad with 2.5% (wt) onion solution; average of 20 panelists; three hours; scale 1-5
Experimental: as §1, §2
(§4) Samples were prepared fresh before each evaluation. A solution of 2.5% (wt) garlic and a solution of 2.5% (wt) onion were both made using 39C alcohol as the solvent. Briefly, 0.4 g of the garlic and onion solutions were each sprayed onto cotton towel pads (100% cotton, 5×5cm). 0.4 g of a test solution containing 5% OMC in ethanol were then sprayed on the onion and garlic-treated cotton pads. The pads were allowed to dry for 15-20 minutes under a fume hood. Each pad was then placed in a blind coded Petri-dish.
(§5) Controls were prepared from cotton pads, which were treated only with the garlic or onion solution (i.e., no OMC test solution).
as §3

[5] = Garlic malodor on cotton fabric, 20-member panel; conditions: 0.4 g of 5% OMC in ethanol on cotton pad with 2.5% (wt) garlic solution; average of 20 panelists; three hours; scale 1-5
Experimental: as §1, §2, §4, §5, §3

SMILES | Class A + Malodor (strength of the axilla malodor, panel score) [1] | 50% DHF/50% Class A (strength of the axilla malodor, panel score) [1] | further results
CCCCCCOC(=O)/C=C/C(=O)OCCCCCC [Dihexyl Fumarate, reference compound] | – | – | 10% test (Compound B Alone) malodor score ([1]; 10% Class B compound alone, procedure of Example 1, scale 1-5): 2.6; 5% OMC + 5% Compound B malodor score ([1]; mixture 5% OMC + 5% Class B compound, procedure of Example 1, scale 1-5): 2.3; MOC effect in words, compound alone [2]: had a MOC effect
CCCCCCCCCCOC(=O)/C=C/c1ccccc1 [GR 85 3428] | 2.8 | 3.3 | –
C/C(=C\c1ccccc1O)C(=O)OCCC(C)CCc1ccccc1 (centres unmarked) [GR 85-1407] | 3.4 | 3.0 | –
CC(C)=CCCC(C)CCOC(=O)/C=C/c1ccccc1O (centres unmarked) [GR 85-2280] | 2.9 | 3.1 | –
CC(C)=CCCC(C)CCOC(=O)/C(C#N)=C/c1ccccc1O (centres unmarked) [GR 85-2661] | 2.9 | 2.4 | –
COc1ccc(OC)c(/C=C/C(=O)OCCC(C)CCC=C(C)C)c1 (centres unmarked) [GR 85-3260] | 3.5 | 2.9 | –
COC(=O)/C(C#N)=C/c1ccccc1 [GR 85-3427] | 3.0 | 3.3 | –
CCCCC(CC)COC(=O)/C=C/c1ccccc1 (centres unmarked) [GR 85-3429] | 3.3 | 2.8 | –
CC(C)=CCCC(C)CCOC(=O)/C=C/c1ccccc1O[Si](C)(C)C (centres unmarked) [GR 85-3565] | 2.7 | 3.1 | –
CCCCC(C)COC(=O)C1=Cc2ccc(OC)cc2CC1 (centres unmarked) [GR 85-6495] | 2.8 | 3.0 | –
CCCCC(C)COC(=O)c1cc2ccccc2oc1=O (centres unmarked) [GR 85-6924] | 2.9 | 2.5 | –
CCCCC(CC)COC(=O)/C=C/c1ccc(OC)cc1 (centres unmarked) [OMC, Octyl methoxy cinnamate] | 2.6 | 2.3 | 10% OMC (Alone) malodor score ([1]; 10% OMC alone, run beside the Compound B of that line, scale 1-5): 3.1 and 2.6 and 3.0; MOC effect in words, mixture of Class A and Class B compound versus alone ([1]; axilla malodor test pads, Tables 3 and 4): acts at least additively with the Class B compounds; MOC effect in words, compound alone [2]: had a MOC effect; Malodor intensity, Smoke [3]: 1.8; Malodor intensity, Onion [4]: 2.7; Malodor intensity, Garlic [5]: 2.6
O=C(/C=C/c1ccccc1)OCCc1ccccc1 [PC, Phenylethylcinnamate] | 2.2 | – | –

Reference: US6610648B2, “Malodor counteractant compositions” (Givaudan SA, priority 2000, dated 2003)
